From the NIST ThermoML archive (doi:10.1016/j.jct.2007.05.004)

Columns and labels:
[1] = 101 kPa, Liquid
[2] = xn = mol fraction of the nth substance listed; settings: 101 kPa, Liquid

CCO [ethanol]
[1]
Settings	mass density [kg/m3]	viscosity [mPa·s]
293.15 K	789.75	1.187
298.15 K	785.46	1.082
303.15 K	781.15	0.987

CCOC(C)=O [ethyl acetate]
[1]
Settings	mass density [kg/m3]	viscosity [mPa·s]
293.15 K	900.52	0.452
298.15 K	894.43	0.426
303.15 K	888.3	0.403

CO [methanol]
[1]
Settings	mass density [kg/m3]	viscosity [mPa·s]
293.15 K	791.9	0.585
298.15 K	787.2	0.545
303.15 K	782.48	0.508

COC(C)=O [methyl ethanoate]
[1]
Settings	mass density [kg/m3]	viscosity [mPa·s]
293.15 K	933.56	0.386
298.15 K	926.98	0.367
303.15 K	920.34	0.348

COC(C)=O [methyl ethanoate] + CCO
[2]
Settings	mass density, 293.15 K [kg/m3]	mass density, 298.15 K [kg/m3]	mass density, 303.15 K [kg/m3]	viscosity, 293.15 K [mPa·s]	viscosity, 298.15 K [mPa·s]	viscosity, 303.15 K [mPa·s]
x2 = 0	933.56	926.98	920.34	0.386	0.367	0.348
x2 = 0.0493	927.83	921.31	914.73	0.383	0.363	0.345
x2 = 0.0987	922	915.54	909.02	0.389	0.365	0.347
x2 = 0.1998	909.85	903.54	897.15	0.398	0.377	0.359
x2 = 0.3006	897.16	891	884.79	0.419	0.395	0.374
x2 = 0.3973	884.52	878.56	872.54	0.444	0.418	0.394
x2 = 0.4863	872.35	866.59	860.77	0.477	0.449	0.422
x2 = 0.6031	855.48	849.99	844.45	0.54	0.505	0.473
x2 = 0.6972	841.15	835.91	830.62	0.615	0.572	0.537
x2 = 0.7986	824.84	819.89	814.9	0.735	0.684	0.64
x2 = 0.9009	807.47	802.85	798.18	0.903	0.838	0.768
x2 = 0.951	798.76	794.3	789.81	1.032	0.945	0.868

COC(C)=O [methyl ethanoate] + CO
[2]
Settings	mass density, 293.15 K [kg/m3]	mass density, 298.15 K [kg/m3]	mass density, 303.15 K [kg/m3]	viscosity, 293.15 K [mPa·s]	viscosity, 298.15 K [mPa·s]	viscosity, 303.15 K [mPa·s]
x2 = 0	933.56	926.98	920.34	0.386	0.367	0.348
x2 = 0.0471	930.26	923.71	917.1	0.378	0.359	0.341
x2 = 0.0982	926.48	919.95	913.37	0.378	0.361	0.342
x2 = 0.1983	918.39	911.96	905.46	0.379	0.366	0.348
x2 = 0.2912	909.97	903.65	897.26	0.382	0.364	0.347
x2 = 0.4015	898.52	892.35	886.12	0.394	0.37	0.351
x2 = 0.5006	886.79	880.78	874.71	0.404	0.382	0.36
x2 = 0.5878	875.07	869.25	863.35	0.416	0.392	0.371
x2 = 0.7017	857.33	851.73	846.09	0.442	0.416	0.393
x2 = 0.8015	838.91	833.57	828.19	0.472	0.443	0.417
x2 = 0.9008	817.51	812.45	807.37	0.521	0.486	0.455
x2 = 0.9504	805.16	800.29	795.38	0.551	0.516	0.483

O [water] + CCO
[2], x1 = 1
Settings	viscosity [mPa·s]
293.15 K	1.002
298.15 K	0.89
303.15 K	0.797

O [water] + CO
[2], x1 = 1
Settings	viscosity [mPa·s]
293.15 K	1.003
298.15 K	0.89
303.15 K	0.797
